# Laboratory results from US5905089A, “Use of sesquiterpene lactones for treatment of severe inflammatory disorders” (Board of Supervisors of Louisiana State University and …, priority 1998, dated 1999).
# Entries after “also recorded” stand apart in the source; their conditions may differ.
# Experiments:
# COX-2 = assay: COX activity of de novo synthesized COX-2 (PGE2) in LPS-stimulated, aspirin-pretreated alveolar macrophages; type: cell-based, Rat (Sprague-Dawley); conditions: LPS 10 μg/ml, 16h; PGE2 from exogenous arachidonic acid; FIG. 2; read-out: IC50, inhibition of the expression of COX activity
# Description: (§1) Rat (Sprague-Dawley) alveolar macrophages were collected by broncho-alveolar lavage as described by Lee et al., J. Biol. Chem., vol. 267, pp. 25934-25938 (1992). The murine macrophage cell line RAW 264.7 (ATCC no. TIB-71) was cultured in Dubecco's modified Eagle's medium (DMEM) containing 10% heat-inactivated fetal bovine serum (FBS, Intergen). For the cyclooxygenase activity assay, cells were seeded in 24 well plates, and after near-confluency, cells were treated with aspirin (250 μM) for 2.5h to inactivate endogenous cyclooxygenase. […] COX activity was determined by measuring prostaglandin E2 concentrations in cells incubated with arachidonic acid (30 μM) for 10 minutes as described in Lee et al. (1992).
# Recovered COX activity in cells pretreated with aspirin reflected de novo synthesized COX-2. Alveolar macrophages pretreated with aspirin were incubated with LPS (10 μg/ml) and various concentrations of parthenolide for 16h. The activity of de novo synthesized COX-2 was determined by measuring the levels of PGE2 produced from exogenous arachidonic acid. Activity of TNFα was determined by bioassay using L929 cells as described by Aggarwal et al., J. Biol. Chem., vol. 260, pp. 2345-2354 (1985). […] Values in FIG. 2 are the means of triplicate samples for TNFα and duplicate samples for PGE2.
# IL-1α = IL-1α protein expression in LPS-stimulated alveolar macrophages (Western blot); type: cell-based, Rat (Sprague-Dawley); conditions: 16h, FIG. 3A
# Description: as §1
# (§2) The protein levels of COX-2 and GAPDH were assessed by Western blot analysis using polyclonal antibodies as described in Lee et al. (1992). Polyclonal antibodies for IL-1α and JNK-1 were purchased from Genzyme and Santa Cruz Biotech, respectively.
# In FIG. 3A, alveolar macrophages were incubated with LPS and various concentrations of parthenolide for 16h. Solubilized proteins were analyzed by COX-2, IL-1α or GAPDH immunoblotting. FIG. 3A is a representative immunoblot of more than five different analyses. Data are shown for various concentrations of both parthenolide (PTN) and herbimycin A (HER). […]
# COX-2 mRNA = assay: Steady state levels of COX-2 mRNA in LPS-stimulated alveolar macrophages (RNase protection assay); type: cell-based, Rat (Sprague-Dawley); conditions: 2h, FIG. 3B
# Description: as §1
# (§3) Total cellular RNA was isolated by TRIzoL reagent (Gibco, BRL). The RNase protection assay was performed as described in Chanmugan et al. (1995).
# (§4) In FIG. 3B, alveolar macrophages were incubated with LPS in the presence of various concentrations of parthenolide for 2h. Steady state levels of mRNA were determined by RNase protection assay. In FIG. 4, alveolar macrophages were incubated with LPS in presence of 1 μg/ml of parthenolide for specified time periods. The concentrations of mRNA were determined by RNase protection assay.
# TNFα mRNA = assay: Steady state levels of TNFα mRNA in LPS-stimulated alveolar macrophages (RNase protection assay); type: cell-based, Rat (Sprague-Dawley); conditions: FIG. 3B (2h) and FIG. 4 (parthenolide 1 μg/ml, time course)
# Description: as §1, §3, §4
# [1] = system: tyrosine phosphorylation of various proteins; assay: LPS-stimulated tyrosine phosphorylation of various proteins in RAW 264.7 cells (antiphosphotyrosine immunoblot); type: cell-based, murine; conditions: 3h pretreatment, LPS 1 μg/ml 30 min; FIG. 5A
# Description: as §1
# (§5) This detection technique was carried out essentially as described in Chanmugan et al. (1995) using 4G10 monoclonal antiphosphotyrosine antibody (UBI) and the ECL detection system (Amersham).
# (§6) Parthenolide suppressed LPS-stimulated tyrosine phosphorylation of various proteins in RAW 264.7 cells as assessed by antiphosphotyrosine immunoblot, depicted in FIG. 5A. This inhibition was correlated with the suppressed expression of COX-2 and IL-1α. […] Therefore, the extent of tyrosine phosphorylation of JNK-1 was assessed by the electrophoretic mobility shift of phosphorylated JNK-1 as shown in FIG. 5B. […]
# ERK-1 = assay: Tyrosine phosphorylation of ERK-1 in RAW 264.7 cells (antiphosphotyrosine immunoblot); type: cell-based, murine; conditions: 3h pretreatment, LPS 1 μg/ml 30 min; FIG. 5A
# Description: as §1, §5, §6
# [2] = system: c-Jun N-terminal kinase-1 (JNK-1); assay: Tyrosine phosphorylation of JNK-1 in RAW 264.7 cells (electrophoretic mobility shift immunoblot); type: cell-based, murine; conditions: 3h pretreatment, LPS 1 μg/ml 30 min; FIG. 5B
# Description: as §1, §2, §6
# MAPKs = assay: Tyrosine phosphorylation / activation of MAPKs in RAW 264.7 cells; type: cell-based, murine; conditions: 3h pretreatment (herbimycin A 0.5 μg/ml), LPS 1 μg/ml 30 min
# Description: as §1, §5
# Parthenolide suppressed LPS-stimulated tyrosine phosphorylation of various proteins in RAW 264.7 cells as assessed by antiphosphotyrosine immunoblot, depicted in FIG. 5A. This inhibition was correlated with the suppressed expression of COX-2 and IL-1α. RAW 264.7 cells were pretreated with parthenolide in various concentrations or with herbimycin A (0.5 μg/ml) for 3h, and then stimulated with LPS (1 μg/ml) in the presence of the inhibitors for 30 min. […] Therefore, the extent of tyrosine phosphorylation of JNK-1 was assessed by the electrophoretic mobility shift of phosphorylated JNK-1 as shown in FIG. 5B. Parthenolide inhibited tyrosine phosphorylation of JNK-1. Another protein tyrosine kinase inhibitor, herbimycin A ([…]), inhibited tyrosine phosphorylation of the MAPK subfamily.
# The mechanism by which parthenolide inhibits protein tyrosine phosphorylation is not currently known. It has been speculated that the tyrosine kinase inhibitor herbimycin A inactivates p60^v-src kinase by irreversibly binding to the sulphydryl (SH) groups of p60^v-src kinase. Y. Uehara et al., Biochem. Biophys. Res. Commun., vol. 163, pp. 803-809 (1989). The inactivation by herbimycin may occur through conjugation between highly polarized double bonds in the benzoquinone moiety of herbimycin A and the SH group of sulphydryl compounds. Without wishing to be bound by this theory, the α-methylenebutyrolactone in parthenolide may interact with biological nucleophiles such as sulphydryl groups. Indeed, pretreating cells with sulphydryl compounds abrogated the inhibitory effect of parthenolide on LPS-induced activation of MAPKs as shown in FIG. 6A. In FIG. 6, RAW 264.7 cells were pretreated with parthenolide (1 μg/ml) in the presence of DTT (dithiothreitol, 100 μM), 2-ME (2-mercaptoethanol, 50 μM), or Cys (L-cysteine, 150 μM), and were then stimulated with LPS (1 μg/ml). Cells were incubated for 30 min for antiphosphotyrosine immunoblot analysis (FIG. 6A) and 8h for COX-2 and IL-1α Western blot analyses (FIG. 6B). […] Whether parthenolide inhibits protein tyrosine phosphorylation by directly inhibiting PTKs or by inhibiting other target protein(s) that affect the activity of PTKs is not currently known.
# ERK-2 = assay: Kinase activity of ERK-2 in RAW 264.7 cells (in-gel kinase assay, MBP substrate); type: cell-based, murine; conditions: 3h pretreatment, LPS 1 μg/ml 30 min; FIG. 5
# Description: as §1
# This assay was performed according to the method described by Kameshita et al., Anal. Biochem., vol. 183, pp. 139-143 (1989) using myelin basic protein (MBP) as a substrate.
# as §6
compound,measurement,setting,value
"C=C1C(=O)O[C@H]2[C@H]1CC/C(C)=C/CC[C@@]1(C)O[C@@H]21 [Compound 1, Parthenolide]",IC50,COX-2,~800 nM
same,expression of IL-1α protein,IL-1α; listed as Parthenolide,inhibited
same,expression of IL-1α protein,IL-1α; listed as parthenolide,dose-dependent inhibition
same,steady state levels of COX-2 mRNA,COX-2 mRNA,dose-dependent inhibition; also recorded: suppression
same,steady state levels of mRNA for TNFα,TNFα mRNA,inhibited
same,LPS-stimulated tyrosine phosphorylation of various proteins,[1],suppressed
same,tyrosine phosphorylation of ERK-1,ERK-1,inhibited by parthenolide in a dose-dependent manner
same,tyrosine phosphorylation of JNK-1,[2],inhibited
same,tyrosine phosphorylation of the MAPK subfamily,MAPKs,most dramatic inhibition
same,kinase activity of ERK-2,ERK-2,dose-dependent inhibition
